Data published in the NIST ThermoML archive (doi:10.1021/je500389t).

Assay: xn = mol fraction of the nth substance listed
Details: 101 kPa, Liquid; for viscosity: Capillary tube (Ostwald / Ubbelohde) method; for mass density: Pycnometric method

COCCOCCOC [2,5,8-trioxanonane] + O
Details	mass density, 293.15 K [kg/m3]	mass density, 298.15 K [kg/m3]	mass density, 303.15 K [kg/m3]	mass density, 308.15 K [kg/m3]	mass density, 313.15 K [kg/m3]	viscosity, 293.15 K [mPa·s]	viscosity, 298.15 K [mPa·s]	viscosity, 303.15 K [mPa·s]	viscosity, 308.15 K [mPa·s]	viscosity, 313.15 K [mPa·s]
x1 = 0.0147	1000.9	998.8	997.5	995.3	994.3	1.39	1.22	1.06	0.939	0.865
x1 = 0.0325	1004.6	1002.7	1000.2	998.1	995.2	1.9	1.66	1.41	1.23	1.09
x1 = 0.0548	1008.4	1005.5	1002.4	999.6	995.9	2.56	2.2	1.82	1.576	1.41
x1 = 0.0822	1010.3	1006.8	1003.1	999.7	995.8	3.21	2.73	2.22	1.91	1.7
x1 = 0.1183	1009.2	1004.8	1000.3	996.5	992.1	3.65	3.1	2.51	2.13	1.88
x1 = 0.1676	1003.2	998.7	994.1	990.1	985.4	3.63	3.09	2.53	2.14	1.9
x1 = 0.2384	993.6	988.3	983.9	979.3	974.5	3.12	2.7	2.24	1.92	1.72
x1 = 0.2866	987.3	982	977.5	973.2	968	2.75	2.42	2.01	1.75	1.58
x1 = 0.3468	980.1	974.9	970.4	965.6	960.8	2.36	2.1	1.77	1.5	1.42
x1 = 0.4495	970.7	965.4	960.9	956.2	951.1	1.97	1.77	1.47	1.31	1.21
x1 = 0.5426	963.6	958.5	953.8	949.2	943.8	1.61	1.47	1.27	1.14	1.06
x1 = 0.699	955.5	950.2	945.4	941	935.7	1.32	1.2	1.08	1	0.941
x1 = 0.7996	951.2	945.9	941.2	936.4	931.4	1.21	1.11	0.997	0.902	0.851
x1 = 0.8928	948.3	942.9	938.1	933.3	928.2	1.14	1.05	0.955	0.862	0.817
x1 = 1	945.2	939.8	935	930.7	925.4	1.09	0.998	0.914	0.834	0.785
